Source: patent US10590389B2, “Endodermal cell production method, liver cell production method, pancreatic cell production method, endodermal cell induction promoter, liver cell induction promoting kit, pancreatic cell induction promoting kit, and microfluidic device” (Kyoto University, priority 2014, dated 2020)

Columns and labels:
Assay type in all cases: cell-based
[1] = tested on: H9 cell line (human ES cell); assay: Number of endodermal cells produced after induction; details: Example 2; seeding 5×10^4 to 2×10^5 cells/well; dispersed or clusters; 10 μmol/l Y27632; under any of these conditions
Protocol: Differentiation into endodermal cells was induced in the same manner as in Example 1, except that the H9 cell line was seeded at a cell density of 5×10^4 cells/well, 1×10^5 cells/well, or 2×10^5 cells/well. Also, differentiation into endodermal cells was induced in the same manner, except that, instead of the H9 cell line in the dispersed state, a H9 cell line forming cell clusters was seeded. Then, the endodermal cells obtained after the induction were collected. The endodermal cells obtained in (1) above were counted.

[2] = tested on: H9 cell line (human ES cell); assay: CXCR4 expression in induced endodermal cells by flow cytometry; details: dispersed or cluster-forming H9 cells, 10 μmol/l Y27632, under any of these conditions
Protocol: On a 24-well dish (growth area: 1.9 cm^2/well, BD Falcon [trademark]), a H9 cell line (obtained from WiCell), which is a human ES cell, was seeded in a dispersed state at a cell density of 1×10^5 cells/well and cultured for 24 hours. The culture conditions were set as follows: 37° C. and 5% CO2. As a culture solution, mTeSR-1 (STEMCELL) containing 10 μmol/l Y27632 (ROCK activity inhibitory compound, Wako) and 100 ng/ml activin A (R&D Systems) was used. To the mTeSR-1A, a penicillin-streptomycin solution (Wako) had been added beforehand so that the mTeSR-1 contained 100 U/ml penicillin and 100 U/ml streptomycin. […] CXCR4 expression in the stained cells was measured using a flow cytometer (BD FACSCanto [trademark] II, BD Biosciences). CXCR4 expression was also measured in the same manner, except that, from culture day 1 to culture day 4, TeSR-E8 or CDM-PVA was used instead of the mTeSR-1. Further, CXCR4 expression was measured in the same manner, except that, instead of the H9 cell line in the dispersed state, the H9 cell line forming cell clusters was seeded on culture day 1. As a control, CXCR4 expression was measured in the same manner, except that an APC-labeled control antibody (clone name: G155-178, BD Pharmigen) was used instead of the anti-human CXCR4 antibody. […] CXCR4 expression in the thus-obtained endodermal cells was measured in the same manner as in (2) in Example 1. […]

[3] = tested on: H9 cell line (human ES cell); assay: Endodermal cell induction from pluripotent cells with or without ROCK activity inhibitory compound (Example 8)
Protocol: On a 24-well dish (growth area: 1.9 cm^2/well, BD Falcon [trademark]), a H9 cell line (obtained from WiCell), which is a human ES cell, was seeded in a dispersed state at a cell density of 1×10^5 cells/well and cultured for 24 hours. The culture conditions were set as follows: 37° C. and 5% CO2. As a culture solution, mTeSR-1 (STEMCELL) containing 10 μmol/l Y27632 (ROCK activity inhibitory compound, Wako) and 100 ng/ml activin A (R&D Systems) was used. To the mTeSR-1A, a penicillin-streptomycin solution (Wako) had been added beforehand so that the mTeSR-1 contained 100 U/ml penicillin and 100 U/ml streptomycin. After the culture, the culture solution used on culture day 1 was removed, and a culture solution with the same composition was further added to each well. The cells were further cultured for one day under the above-described culture conditions. The culture solution used on culture day 2 was removed, and mTeSR-1 containing 10 μmol/l Y27632, 100 ng/ml activin A, 10 ng/ml BMP-4 (R&D Systems), 10 μmol/l LY294002 (PI3K activity inhibitory compound, CAYMAN CHEMICAL COMPANY), and 3 μmol/l CHIR99021 (GSK-3β activity inhibitory compound, STEMGENT) was added. Then, the cells were cultured for 24 hours under the above-described culture conditions. […]

In the case of C[C@@H](N)[C@H]1CC[C@H](C(=O)Nc2ccncc2)CC1 [Y27632], the “number of the endodermal cells obtained after the induction relative to the number of cells of the H9 cell line at the start of the induction” value [1] is reported as “at least six”, the “proportion of the cells positive to the endoderm cell marker CXCR4” value ([2]; Example 1, after culture day 5, mTeSR-1, TeSR-E8 or CDM-PVA) is reported as ≥ 80.5% and the “proportion of the cells positive to the endoderm cell marker CXCR4” value ([2]; Example 2, seeding 5×10^4, 1×10^5 or 2×10^5 cells/well) is reported as ≥ 83.7%. The probability of induction ([3]; endodermal cell induction examined on culture day 5, 10 μmol/l Y27632 on culture days 1-4) was 100% and the “Number of times endodermal cell induction was performed” value ([3]; successful inductions / total inductions, examined on culture day 5, 10 μmol/l Y27632 on culture days 1-4 with activin A, BMP-4, LY294002, CHIR99021) was 20/20.
